Experimental data as given in patent publication US6908899B2, “Pro-inflammatory fibrinopeptide” (U.S. Dept. of Veterans Affairs, priority 2001, dated 2005).
Where no end group is shown, it is not given here. [ ]: non-standard residue; d: D form. Pen = CC(C)(S)[C@H](N)C(=O)O

Legend:
[1] = test system: foreskin fibroblasts; assay: ICAM-1 cell-ELISA (O.D. 492); type: cell-based, human; conditions: overnight; for ICAM-1 O.D. 492: Foreskin line, IL-1 0.5 ng/ml, GPRP or GPRP-amide 1 mg/ml, fibrinogen receptor peptide 0.1 mg/ml, FPA, FPB 10^−4 M
[2] = test system: synovial cells from patients with osteoarthritis (OA); assay: ICAM-1 ELISA (O.D. 492); type: cell-based, human; conditions: OA line; overnight; IL-1 0.5 ng/ml, GPRP or GPRP-amide 1 mg/ml, fibrinogen receptor peptide 0.1 mg/ml, FPA, FPB 10^−4 M
[3] = test system: RA synovial fibroblasts; assay: ICAM-1 cell-ELISA (O.D. 492); type: cell-based, human; conditions: for ICAM-1 O.D. 492: overnight, IL-1 0.5 ng/ml, GPRP or GPRP-amide 1 mg/ml, fibrinogen receptor peptide 0.1 mg/ml, FPA, FPB 10^−4 M; for Effect on ICAM-1 induction: synovial cell incubation with coagulation-related peptides
[4] = test system: OA synovial cells; assay: PDTC inhibition of IL-1 and GPRP induction of ICAM-1 (ELISA); type: cell-based, human; conditions: PDTC pre-incubation 1.5 hours, IL-1 or GPRP overnight, ± SD, triplicate
Source text: (§1) NF-kappaB activation is already well known to affect a broad array of immediate-early gene products, such as TNF, interleukins, chemokines and colony stimulating factors; genes that are tightly regulated during inflammation and wound healing. […] PDTC is an anti-oxidant that prevents NF-kappaB activation and its translocation to the nucleus (Reference 26). […] [table]

[5] = test system: RA synovial cells; assay: as above; type: cell-based, human; conditions: for ICAM-1 O.D. 492: PDTC pre-incubation 1.5 hours, IL-1 or GPRP overnight, ± SD, triplicate
Source text: as §1

[6] = test system: RA synovial fibroblasts; assay: Binding of biotinylated peptide by flow cytometry; parameters: species or system human; conditions: RA #16, Avidin-FITC
Source text: Table 9 illustrates an analysis of the binding of biotinylated amino acid sequence 17-28 of human fibrinogen Aα Chain (SAC[KBtn]) to RA synovial fibroblasts by Flow Cytometry. The biotinylated control peptide (KREE-SEQ ID NO:3) represents corresponding sequences derived from the B/beta chain of fibrinogen following removal of Fibrinopeptide B.

[7] = test system: monocytes; conditions: monocytes stimulated with PHA; for comparison; cited from earlier work
[8] = test system: fibrin polymerization; conditions: cited from earlier work
Chain of fibrin polymerization (P02679 27-453, one chain of several): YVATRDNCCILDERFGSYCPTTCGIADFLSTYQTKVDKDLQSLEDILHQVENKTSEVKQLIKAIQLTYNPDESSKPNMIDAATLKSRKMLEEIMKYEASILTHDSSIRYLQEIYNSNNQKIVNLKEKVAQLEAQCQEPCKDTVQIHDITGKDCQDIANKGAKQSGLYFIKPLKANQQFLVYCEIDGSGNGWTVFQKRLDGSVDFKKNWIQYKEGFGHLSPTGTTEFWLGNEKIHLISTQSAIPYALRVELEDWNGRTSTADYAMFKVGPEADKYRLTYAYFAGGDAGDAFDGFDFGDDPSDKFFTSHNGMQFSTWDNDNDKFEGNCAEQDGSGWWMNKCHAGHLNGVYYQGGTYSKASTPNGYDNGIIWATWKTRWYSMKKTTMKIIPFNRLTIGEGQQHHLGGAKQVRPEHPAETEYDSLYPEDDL
Chain of fibrin polymerization (P02671 20-639 isoform P02671-2 partner limits assumed, one chain of several): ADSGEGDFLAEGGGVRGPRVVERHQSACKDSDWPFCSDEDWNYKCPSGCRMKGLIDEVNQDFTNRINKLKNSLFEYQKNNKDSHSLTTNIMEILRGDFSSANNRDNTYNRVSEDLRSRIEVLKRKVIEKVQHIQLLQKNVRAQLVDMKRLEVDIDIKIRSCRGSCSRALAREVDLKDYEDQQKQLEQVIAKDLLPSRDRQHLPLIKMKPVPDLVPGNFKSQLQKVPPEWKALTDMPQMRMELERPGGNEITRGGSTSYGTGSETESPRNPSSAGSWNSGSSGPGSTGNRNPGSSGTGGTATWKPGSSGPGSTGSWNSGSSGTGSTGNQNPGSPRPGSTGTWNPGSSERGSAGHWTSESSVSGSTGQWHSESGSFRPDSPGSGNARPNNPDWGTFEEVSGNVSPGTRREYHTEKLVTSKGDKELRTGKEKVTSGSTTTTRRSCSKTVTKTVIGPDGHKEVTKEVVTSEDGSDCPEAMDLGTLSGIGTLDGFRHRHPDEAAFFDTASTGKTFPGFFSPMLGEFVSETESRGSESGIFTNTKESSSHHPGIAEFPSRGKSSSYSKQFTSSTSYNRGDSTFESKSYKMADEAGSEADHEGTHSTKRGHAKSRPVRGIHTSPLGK

[9] = test system: RA patients; conditions: double blind clinical trial (Reference 29); cited from earlier work
[10] = test system: Synovial cells; assay: SAC competition assay by flow cytometry; type: binding, human; conditions: for Mean (fluorescence of bound SAC[KBtn]): Avidin-FITC
Source text: Thus, labeled peptide could facilitate the isolation, identification and characterization of its receptor, through standard immunological techniques such as immunohistochemistry, flow cytometry and immunoprecipitation.

[11] = test system: foreskin fibroblast cells; assay: In vitro T cell adhesion assay; type: cell-based, human; conditions: Foreskin line; IL-1 beta 1 ng/ml overnight; ± SD, triplicate wells
[12] = test system: RA derived synovial cells; assay: In vitro T cell adhesion assay; type: cell-based, human; conditions: IL-1 beta 1 ng/ml overnight, ± SD, triplicate wells
[13] = test system: OA derived synovial cells; assay: In vitro T cell adhesion assay; type: cell-based, human; conditions: OA line 15; IL-1 beta 1 ng/ml overnight; ± SD, triplicate wells
[14] = test system: RA synovial fibroblasts; assay: GRO-alpha ELISA on cell culture supernatants; type: cell-based, human; conditions: RA line 7
Method: I used commercial ELISA kits to assay cell culture supernatants of RA fibroblasts that were cultured for both 24 and 48 hours with or without peptide.

[15] = unlabeled competitor 2.5 mg for 3 hours, then labeled SAC[KBtn] for 1 hour

For “Ac-[Pen]RGDC (cysteine pairing not given here) [Fib. Recept. Pept., reference compound]”, the “ICAM-1 O.D. 492” value [1] was 0.73 ± .08, the “ICAM-1 O.D. 492” value [2] was 0.38 ± .02 and the “ICAM-1 O.D. 492” value ([3]; RA line 1) was 0.56 ± .02. The “ICAM-1 O.D. 492” value ([3]; RA line 2) was 0.42 ± .01.

In the case of S=C(S)N1CCCC1 [PDTC, pyrrolidinedithio-carbamate], the “ICAM-1 O.D. 492” value ([4]; OA line 2) is reported as 0.65 ± .03, the “ICAM-1 O.D. 492” value ([4]; OA line 8) is reported as 0.55 ± .04 and the “ICAM-1 O.D. 492” value ([5]; RA line 5) is reported as 0.75 ± .06. For the same molecule, the “ICAM-1 O.D. 492” value ([5]; RA line 6) was 0.61 ± .02 and the “Effect on increase in ICAM-1 expression induced by Interleukin-1 and by GPRP” value ([5]; inclusion of PDTC) was “stopped the entire increase in ICAM-1 expression”.

For “GHRPLDKKREE[KBtn] (GHRPLDKKREEK) [KREE [KBtn], biotinylated control peptide derived from the B/beta chain of fibrinogen, reference compound]”, the “% Cells Positive” value ([6]; 100 ug biotinylated peptide) was 10.6% and the “Mean Fluorescent Channel” value ([6]; 100 ug biotinylated peptide) was 20.37.

For phytohemagglutinin, the “Increase of IL-8 production” value [7] is given as “approximately three”.

In the case of “GPRP-amide: GPRP with the carboxyl group at the end of Pro4 changed to an amide group (OH to NH2) (GPRP-NH2)”, the “ICAM-1 O.D. 492” value [1] is given as 0.80 ± .01, the “ICAM-1 O.D. 492” value [2] is given as 0.44 ± .01 and the “Effectiveness at inhibiting polymerization relative to H-Gly-Pro-Arg-Pro-OH” value ([8]; Reference 20) is given as “approximately three and one-half”. For the same molecule, the “ICAM-1 O.D. 492” value ([3]; RA line 1) was 0.65 ± .02, the “ICAM-1 O.D. 492” value ([3]; RA line 2) was 0.49 ± .02 and the “Induction of ICAM-1 in synovial fibroblasts” value ([3]; amide analog substituted for GPRP) was “totally ineffective”.

For C[C@]12Cc3c[nH]nc3C[C@@H]1CC[C@@H]1[C@@H]2CC[C@@]2(C)[C@H]1CC[C@]2(C)O [stanozolol], the “Clinical outcome in RA patients” value [9] is given as “clinical benefit”.

In the case of “FPA: amino acids 1 through 16 of the fibrinogen A/alpha chains cleaved off by thrombin (ADSGEGDFLAEGGGVR; Fibrinopeptide A; UniProt P02671 20-35, looked up) [reference compound]”, the “ICAM-1 O.D. 492” value [1] is reported as 0.69 ± .02, the “ICAM-1 O.D. 492” value [2] is reported as 0.31 ± .005 and the “ICAM-1 O.D. 492” value ([3]; RA line 1) is reported as 0.61 ± .05. For the same molecule, the “ICAM-1 O.D. 492” value ([3]; RA line 2) was 0.43 ± .03 and the “Effect on ICAM-1 induction” value [3] was “no effect”.

With “GPRVVERHQSAC (Unknown. Obtained from a commercial source.)” the “Competition with biotin-labeled SAC for binding to human synovial fibroblasts” value ([10]; unlabeled competitor) was “can compete” and the “Mean (fluorescence of bound SAC[KBtn])” value [10, 15] was 36.30.

In the case of Gly-Pro-Arg [reference compound], the “Inhibition of fibrin polymerization” value ([8]; literature (Reference 25)) is listed as “functions well as a polymerization inhibitor”.

With “FPB: Fibrinopeptide B, coagulation-related peptide (QGVNDNEEGFFSAR; ends and bridges not checked; UniProt P02675 31-44, looked up) [reference compound]” the “ICAM-1 O.D. 492” value [1] was 0.80 ± .02, the “ICAM-1 O.D. 492” value [2] was 0.41 ± .04 and the “ICAM-1 O.D. 492” value ([3]; RA line 1) was 0.67 ± .04. The “ICAM-1 O.D. 492” value ([3]; RA line 2) was 0.47 ± .02 and the “Effect on ICAM-1 induction” value [3] was “no effect”.

With “IL-1: cytokine, an inducer of ICAM-1, positive control [reference compound]” the “Adherent T cell numbers” value [11] was 94 ± 16, the “ICAM-1 O.D. 492” value [1] was 1.77 ± .13 and the “Adherent T cell numbers” value ([12]; RA line 7) was 116 ± 14. The “Adherent T cell numbers” value ([12]; RA line 8) was 58 ± 21, the “ICAM-1 O.D. 492” value [2] was 1.36 ± .03 and the “ICAM-1 O.D. 492” value ([4]; OA line 2) was 1.60 ± .03. For the same molecule, the “ICAM-1 O.D. 492” value ([4]; OA line 8) was 1.51 ± .05, the “ICAM-1 O.D. 492” value ([5]; RA line 5) was 1.88 ± .05 and the “ICAM-1 O.D. 492” value ([5]; RA line 6) was 1.80 ± .04. The “ICAM-1 O.D. 492” value ([3]; RA line 1) was 1.74 ± .08, the “ICAM-1 O.D. 492” value ([3]; RA line 2) was 1.18 ± .03 and the “Adherent T cell numbers” value [13] was 66 ± 19.

In the case of “GPRVVERHQSAC[KBtn] (GPRVVERHQSACK) [SAC [KBtn]]”, the “Mean (fluorescence of bound SAC[KBtn])” value ([10]; labeled SAC[KBtn] without competitor) is reported as 51.20, the “% Cells Positive” value ([6]; 100 ug biotinylated peptide) is reported as 86.3% and the “Mean Fluorescent Channel” value ([6]; 100 ug biotinylated peptide) is reported as 257.9. The “% Cells Positive” value ([6]; 200 ug biotinylated peptide) was 80.0% and the “Mean Fluorescent Channel” value ([6]; 200 ug biotinylated peptide) was 125.1.

B1: interferon γ: positive control for foreskin fibroblasts (protein, UniProt P01579 24-161, looked up)
Interferon gamma: QDPYVKEAENLKKYFNAGHSDVADNGTLFLGILKNWKEESDRKIMQSQIVSFYFKLFKNFKDDQSIQKSVETIKEDMNVKFFNSNKKKRDDFEKLTNYSVTDLNVQRKAIHELIQVMAELSPAAKTGKRKRSQMLFRG
In the case of B1, the “ICAM-1 expression O.D. 492” value ([1]; Foreskin fibroblasts, fibrin clots 0.6 mg/ml, GPRP 1 mg/ml or interferon γ 200 U/ml, mean ± SD) is reported as 1.57 ± .13.

B2: Fibrinogen: plasma protein precursor of fibrin; unlabeled competitor in Table 10 (protein)
chain 1: ADSGEGDFLAEGGGVRGPRVVERHQSACKDSDWPFCSDEDWNYKCPSGCRMKGLIDEVNQDFTNRINKLKNSLFEYQKNNKDSHSLTTNIMEILRGDFSSANNRDNTYNRVSEDLRSRIEVLKRKVIEKVQHIQLLQKNVRAQLVDMKRLEVDIDIKIRSCRGSCSRALAREVDLKDYEDQQKQLEQVIAKDLLPSRDRQHLPLIKMKPVPDLVPGNFKSQLQKVPPEWKALTDMPQMRMELERPGGNEITRGGSTSYGTGSETESPRNPSSAGSWNSGSSGPGSTGNRNPGSSGTGGTATWKPGSSGPGSTGSWNSGSSGTGSTGNQNPGSPRPGSTGTWNPGSSERGSAGHWTSESSVSGSTGQWHSESGSFRPDSPGSGNARPNNPDWGTFEEVSGNVSPGTRREYHTEKLVTSKGDKELRTGKEKVTSGSTTTTRRSCSKTVTKTVIGPDGHKEVTKEVVTSEDGSDCPEAMDLGTLSGIGTLDGFRHRHPDEAAFFDTASTGKTFPGFFSPMLGEFVSETESRGSESGIFTNTKESSSHHPGIAEFPSRGKSSSYSKQFTSSTSYNRGDSTFESKSYKMADEAGSEADHEGTHSTKRGHAKSRPV
chain 2: QGVNDNEEGFFSARGHRPLDKKREEAPSLRPAPPPISGGGYRARPAKAAATQKKVERKAPDAGGCLHADPDLGVLCPTGCQLQEALLQQERPIRNSVDELNNNVEAVSQTSSSSFQYMYLLKDLWQKRQKQVKDNENVVNEYSSELEKHQLYIDETVNSNIPTNLRVLRSILENLRSKIQKLESDVSAQMEYCRTPCTVSCNIPVVSGKECEEIIRKGGETSEMYLIQPDSSVKPYRVYCDMNTENGGWTVIQNRQDGSVDFGRKWDPYKQGFGNVATNTDGKNYCGLPGEYWLGNDKISQLTRMGPTELLIEMEDWKGDKVKAHYGGFTVQNEANKYQISVNKYRGTAGNALMDGASQLMGENRTMTIHNGMFFSTYDRDNDGWLTSDPRKQCSKEDGGGWWYNRCHAANPNGRYYWGGQYTWDMAKHGTDDGVVWMNWKGSWYSMRKMSMKIRPFFPQQ
chain 3: YVATRDNCCILDERFGSYCPTTCGIADFLSTYQTKVDKDLQSLEDILHQVENKTSEVKQLIKAIQLTYNPDESSKPNMIDAATLKSRKMLEEIMKYEASILTHDSSIRYLQEIYNSNNQKIVNLKEKVAQLEAQCQEPCKDTVQIHDITGKDCQDIANKGAKQSGLYFIKPLKANQQFLVYCEIDGSGNGWTVFQKRLDGSVDFKKNWIQYKEGFGHLSPTGTTEFWLGNEKIHLISTQSAIPYALRVELEDWNGRTSTADYAMFKVGPEADKYRLTYAYFAGGDAGDAFDGFDFGDDPSDKFFTSHNGMQFSTWDNDNDKFEGNCAEQDGSGWWMNKCHAGHLNGVYYQGGTYSKASTPNGYDNGIIWATWKTRWYSMKKTTMKIIPFNRLTIGEGQQHHLGGAKQAGDV
With B2 the “Mean (fluorescence of bound SAC[KBtn])” value [10, 15] was 21.63, the GRO-alpha [14] was 8000 pg/mL and the “GRO-alpha Fold Increase” value ([14]; versus control) was 145X.
